Measured values reported in US8778926B2, “Compounds, pharmaceutical compositions and uses thereof” (Boehringer Ingelheim International GmbH, priority 2011, dated 2014).

target: T1, human GPR119 (Homo sapiens, UniProt Q8TDV5); assay: AlphaScreen cAMP assay, activation of GPR119 in Min-6/hGPR119 cells; format: cell-based; details: MIN6 cells stably transfected with human GPR119; intracellular cAMP; 45 minutes incubation at room temperature
T1 construct: expression vector for human GPR119 cDNA (Acc. No. NP_848566); expressed in transfected cells
T1 sequence (Q8TDV5 1-335): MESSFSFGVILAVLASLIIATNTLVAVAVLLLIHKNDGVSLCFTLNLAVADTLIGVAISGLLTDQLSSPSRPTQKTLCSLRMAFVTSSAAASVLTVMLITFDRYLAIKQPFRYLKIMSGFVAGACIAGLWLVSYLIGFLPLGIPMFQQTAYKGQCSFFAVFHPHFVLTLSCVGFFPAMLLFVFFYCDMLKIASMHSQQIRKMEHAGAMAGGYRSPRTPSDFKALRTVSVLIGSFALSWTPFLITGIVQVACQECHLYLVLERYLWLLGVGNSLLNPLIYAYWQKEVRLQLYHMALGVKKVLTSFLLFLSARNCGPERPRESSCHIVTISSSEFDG
Method: The compounds of formula I according to the invention modulate the activity of the G-protein-coupled receptor GPR119. The effect of the compounds on the activation of GPR119 and on the stimulation of intracellular cAMP concentration is determined using the AlphaScreen cAMP Assay Kit (Cat. No. #6760625R) made by PerkinElmer.
MIN6 cells [Miyazaki J et al. Endocrinology. 1990 July; 127(1):126-32] are stably transfected with an expression vector for human GPR119 cDNA (Acc. No. NP_848566). Min-6/hGPR119 cells are cultured in DMEM, 10% FBS, 500 μM β-mercaptoethanol, 0.3 mg/mL Geniticin, 2 mM GlutaMAX at 37° C. 5% CO2. For the assay, the cells are seeded in Optiplates (white, 384-well, 160 W— barcoded, TC, sterile with lid, Cat. No. #6007688 (Perkin Elmer); 10000 cells/well; 50 μl). The plates covered with lids are then incubated for 24 hours at 37° C./5% CO2. After the medium is aspirated from the wells completely, 10 μl of the test compound are added, the compounds are diluted using stimulating buffer (140 mM NaCl, 3.6 mM KCl, 0.5 mM NaH2PO4, 0.5 mM MgSO4, 1.5 mM CaCl2, 10 mM Hepes, 5 mM NaHCO3; pH 7.4. 0.5 mM IBMX and 0.1% BSA, the final DMSO concentration is 1%). After 45 minutes incubation at room temperature (approx. 20° C.), the cAMP concentrations are determined using the AlphaScreen cAMP Assay Kit (Cat. No. #6760625R from PerkinElmer).

Point of comparison: `CCCc1nc(N2CCC(C3Cc4cc(-c5ccc(S(C)(=O)=O)cc5)ncc4O3)CC2)no1` (stereo not drawn) [Example 9, 5-(4-Methanesulfonyl-phenyl)-2-[1-(5-propyl-[1,2,4]oxadiazol-3-yl)-piperidin-4-yl]-2,3-dihydro-furo[2,3-c]pyridine], EC50 12 nM. Against it:
- CCc1cnc(N2CCC(C3Cc4cc(-c5ccc(S(C)(=O)=O)cc5)ccc4O3)CC2)nc1 (stereo not drawn) [Example 1, 5-Ethyl-2-{4-[5-(4-methanesulfonyl-phenyl)-2,3-dihydro-benzofuran-2-yl]-piperidin-1-yl}-pyrimidine] — 1.8-fold higher, 21 nM
- CC(C)c1noc(N2CCC(C3Cc4cc(-c5ccc(S(C)(=O)=O)cc5)ccc4O3)CC2)n1 (stereo not drawn) [Example 2, 1-(3-Isopropyl-[1,2,4]oxadiazol-5-yl)-4-[5-(4-methanesulfonyl-phenyl)-2,3-dihydro-benzofuran-2-yl]-piperidine] — 2.2-fold higher, 27 nM
- CS(=O)(=O)c1ccc(-c2ccc3c(c2)CC(C2CCN(c4nc(C5CC5)no4)CC2)O3)cc1 (stereo not drawn) [Example 3, 1-(3-Cyclopropyl-[1,2,4]oxadiazol-5-yl)-4-[5-(4-methanesulfonyl-phenyl)-2,3-dihydro-benzofuran-2-yl]-piperidine] — 5.9-fold higher, 71 nM
- CCCc1noc(N2CCC(C3Cc4cc(-c5ccc(S(C)(=O)=O)cc5)ccc4O3)CC2)n1 (stereo not drawn) [Example 4, 4-[5-(4-Methanesulfonyl-phenyl)-2,3-dihydro-benzofuran-2-yl]-1-(3-propyl-[1,2,4]oxadiazol-5-yl)-piperidine] — 4.3-fold higher, 52 nM
- CCc1cnc(N2CCC(C3Cc4cc(-c5ccc(S(C)(=O)=O)cc5)ncc4O3)CC2)nc1 (stereo not drawn) [Example 5, 2-[1-(5-Ethyl-pyrimidin-2-yl)-piperidin-4-yl]-5-(4-methanesulfonyl-phenyl)-2,3-dihydro-furo[2,3-c]pyridine] — the same, 12 nM
- CC(C)c1noc(N2CCC(C3Cc4cc(-c5ccc(S(C)(=O)=O)cc5)ncc4O3)CC2)n1 (stereo not drawn) [Example 6, 2-[1-(3-Isopropyl-[1,2,4]oxadiazol-5-yl)-piperidin-4-yl]-5-(4-methanesulfonyl-phenyl)-2,3-dihydro-furo[2,3-c]pyridine] — 2.7-fold higher, 32 nM
- CCCc1noc(N2CCC(C3Cc4cc(-c5ccc(S(C)(=O)=O)cc5)ncc4O3)CC2)n1 (stereo not drawn) [Example 7, 5-(4-Methanesulfonyl-phenyl)-2-[1-(3-propyl-[1,2,4]oxadiazol-5-yl)-piperidin-4-yl]-2,3-dihydro-furo[2,3-c]pyridine] — 2.9-fold higher, 35 nM
- CC(C)c1nc(N2CCC(C3Cc4cc(-c5ccc(S(C)(=O)=O)cc5)ncc4O3)CC2)no1 (stereo not drawn) [Example 8, 2-[1-(5-Isopropyl-[1,2,4]oxadiazol-3-yl)-piperidin-4-yl]-5-(4-methanesulfonyl-phenyl)-2,3-dihydro-furo[2,3-c]pyridine] — within 1.5-fold, 11 nM
- Cc1cnc(N2CCC(C3Cc4cc(-c5ccc(S(C)(=O)=O)cc5)ncc4O3)CC2)cn1 (stereo not drawn) [Example 10, 5-(4-Methanesulfonyl-phenyl)-2-[1-(5-methyl-pyrazin-2-yl)-piperidin-4-yl]-2,3-dihydro-furo[2,3c]pyridine] — 13-fold higher, 152 nM
- CCc1cnc(N2CCC(C3Cc4cc(-c5ccc(S(C)(=O)=O)cc5)ncc4O3)CC2)cn1 (stereo not drawn) [Example 11, 2-[1-(5-Ethyl-pyrazin-2-yl)-piperidin-4-yl]-5-(4-methanesulfonyl-phenyl)-2,3-dihydro-furo[2,3-c]pyridine] — 4.9-fold higher, 59 nM
- CCc1cnc(N2CCC(C3Cc4cc(-c5ccc(CS(C)(=O)=O)cc5)ncc4O3)CC2)nc1 (stereo not drawn) [Example 12, 2-[1-(5-Ethyl-pyrimidin-2-yl)-piperidin-4-yl]-5-(4-methanesulfonylmethyl-phenyl)-2,3-dihydro-furo[2,3-c]pyridine] — 1.8-fold higher, 22 nM
- CC(C)c1noc(N2CCC(C3Cc4cc(-c5ccc(CS(C)(=O)=O)cc5)ncc4O3)CC2)n1 (stereo not drawn) [Example 13, 2-[1-(3-Isopropyl-[1,2,4]oxadiazol-5-yl)-piperidin-4-yl]-5-(4-methanesulfonylmethyl-phenyl)-2,3-dihydro-furo[2,3-c]pyridine] — 2.3-fold higher, 28 nM
- CS(=O)(=O)c1ccc(-c2cc3c(cn2)OC(C2CCN(c4nc(C(F)(F)F)no4)CC2)C3)cc1 (stereo not drawn) [Example 14, 5-(4-Methanesulfonyl-phenyl)-2-[1-(3-trifluoromethyl-[1,2,4]oxadiazol-5-yl)-piperidin-4-yl]-2,3-dihydro-furo[2,3-c]pyridine] — 2.4-fold higher, 29 nM
- CCCc1noc(N2CCC(C3Cc4cc(-c5ccc(CS(C)(=O)=O)cc5)ncc4O3)CC2)n1 (stereo not drawn) [Example 15, 5-(4-Methanesulfonylmethyl-phenyl)-2-[1-(3-propyl-[1,2,4]oxadiazol-5-yl)-piperidin-4-yl]-2,3-dihydro-furo[2,3-c]pyridine] — 3.2-fold higher, 38 nM
- CC(C)c1nc(N2CCC(C3Cc4cc(-c5ccc(CS(C)(=O)=O)cc5)ncc4O3)CC2)no1 (stereo not drawn) [Example 16] — within 1.5-fold, 17 nM
- CCCc1nc(N2CCC(C3Cc4cc(-c5ccc(CS(C)(=O)=O)cc5)ncc4O3)CC2)no1 (stereo not drawn) [Example 17, 5-(4-Methanesulfonylmethyl-phenyl)-2-[1-(5-propyl-[1,2,4]oxadiazol-3-yl)-piperidin-4-yl]-2,3-dihydro-furo[2,3-c]pyridine] — 1.8-fold higher, 21 nM
- CCc1cnc(N2CCC(C3Cc4cc(C5=CCN(S(C)(=O)=O)CC5)ncc4O3)CC2)nc1 (stereo not drawn) [Example 18, 2-[1-(5-Ethyl-pyrimidin-2-yl)-piperidin-4-yl]-5-(1-methanesulfonyl-1,2,3,6-tetrahydro-Pyridin-4-yl)-2,3-dihydro-furo[2,3-c]pyridine] — 6-fold lower, 2 nM
- CCCc1noc(N2CCC(C3Cc4cc(C5=CCN(S(C)(=O)=O)CC5)ncc4O3)CC2)n1 (stereo not drawn) [Example 19, 5-(1-Methanesulfonyl-1,2,3,6-tetrahydro-pyridin-4-yl)-2-[1-(3-propyl-[1,2,4]oxadiazol-5-yl)-piperidin-4-yl]-2,3-dihydro-furo[2,3-c]pyridine] — 2.1-fold higher, 25 nM
- CC(C)c1noc(N2CCC(C3Cc4cc(C5=CCN(S(C)(=O)=O)CC5)ncc4O3)CC2)n1 (stereo not drawn) [Example 20, 2-[1-(3-Isopropyl-[1,2,4]oxadiazol-5-yl)-piperidin-4-yl]-5-(1-methanesulfonyl-1,2,3,6-tetrahydro-pyridin-4-yl)-2,3-dihydro-furo[2,3-c]pyridine] — within 1.5-fold, 16 nM
- CC(C)c1noc(N2CCC(C3Cc4cc(-c5ccc(CS(C)(=O)=O)cc5F)ncc4O3)CC2)n1 (stereo not drawn) [Example 21, 5-(2-Fluoro-4-methanesulfonylmethyl-phenyl)-2-[1-(3-isopropyl-[1,2,4]oxadiazol-5-yl)-piperidin-4-yl]-2,3-dihydro-furo[2,3-c]pyridine] — 2.3-fold higher, 28 nM
- CC(C)c1nc(N2CCC(C3Cc4cc(C5=CCN(S(C)(=O)=O)CC5)ncc4O3)CC2)no1 (stereo not drawn) [Example 22] — 2-fold lower, 6 nM
- CCCc1nc(N2CCC(C3Cc4cc(C5=CCN(S(C)(=O)=O)CC5)ncc4O3)CC2)no1 (stereo not drawn) [Example 23, 5-(1-Methanesulfonyl-1,2,3,6-tetrahydro-pyridin-4-yl)-2-[1-(5-propyl-[1,2,4]oxadiazol-3-yl)-piperidin-4-yl]-2,3-dihydro-furo[2,3-c]pyridine] — 1.7-fold lower, 7 nM
- CC(C)c1nc(N2CCC(C3Cc4cc(-c5ccc(CS(C)(=O)=O)cc5F)ncc4O3)CC2)no1 (stereo not drawn) [Example 24, 5-(2-Fluoro-4-methanesulfonylmethyl-phenyl)-2-[1-(5-isopropyl-[1,2,4]oxadiazol-3-yl)-piperidin-4-yl]-2,3-dihydro-furo[2,3-c]pyridine] — 5-fold higher, 60 nM
- CCCc1nc(N2CCC(C3Cc4cc(-c5ccc(CS(C)(=O)=O)cc5F)ncc4O3)CC2)no1 (stereo not drawn) [Example 25, 5-(2-Fluoro-4-methanesulfonylmethyl-phenyl)-2-[1-(5-propyl-[1,2,4]oxadiazol-3-yl)-piperidin-4-yl]-2,3-dihydro-furo[2,3-c]pyridine] — 5.2-fold higher, 62 nM
- CC(C)(C)c1noc(N2CCC(C3Cc4cc(C5=CCN(S(C)(=O)=O)CC5)ncc4O3)CC2)n1 (stereo not drawn) [Example 34, 2-[1-(3-tert-Butyl-[1,2,4]oxadiazol-5-yl)-piperidin-4-yl]-5-(1-methanesulfonyl-1,2,3,6-tetrahydro-pyridin-4-yl)-2,3-dihydro-furo[2,3-c]pyridine] — 1.5-fold higher, 18 nM
- CC(C)(C)c1nc(N2CCC(C3Cc4cc(C5=CCN(S(C)(=O)=O)CC5)ncc4O3)CC2)no1 (stereo not drawn) [Example 39] — 1.5-fold lower, 8 nM
- CCc1cnc(N2CCC(C3Cc4cc(-c5ccc(C(=O)N6CCOCC6)cc5)ccc4O3)CC2)nc1 (stereo not drawn) [Example 60] — within 1.5-fold, 11 nM
- CCc1cnc(N2CCC(C3Cc4cc(-c5ccc(C(=O)N(C)C6CCCOC6)cc5)ccc4O3)CC2)nc1 (stereo not drawn) [Example 61] — 3.9-fold higher, 47 nM
- CCc1cnc(N2CCC(C3Cc4cc(-c5ccc(C(=O)N(C)CCOC)cc5)ccc4O3)CC2)nc1 (stereo not drawn) [Example 62] — 1.7-fold higher, 20 nM
